From patent US20200399222A1, “PICOLINAMIDES AS FUNGICIDES” (Dow AgroSciences LLC, priority 2018, published 2020) come the findings set out here.

The subject of one experiment is Zymoseptoria tritici. As to the kind of experiment: Leaf blotch of wheat (SEPTTR) disease control on wheat seedlings. As to conditions: High volume application, 100 ppm. Type of experiment: in vivo. Here is the method:
Example A: Evaluation of Fungicidal Activity: Leaf Blotch of Wheat (Zymoseptoria tritici; Bayer Code […]) Technical grades of materials were dissolved in acetone, which were then mixed with nine volumes of water containing 110 ppm Triton X-100. The fungicide solutions were applied onto wheat seedlings using an automated booth sprayer to run-off. All sprayed plants were allowed to air dry prior to further handling. All fungicides were evaluated using the aforementioned method for their activity vs. all target diseases, unless stated otherwise. Wheat leaf blotch and brown rust activity were also evaluated using track spray applications, in which case the fungicides were formulated as EC formulations, containing 0.1% Trycol 5941 in the spray solutions. Wheat plants (variety Yuma) were grown from seed in a greenhouse in 50% mineral soil/50% soil-less Metro mix until the first leaf was fully emerged, with 7-10 seedlings per pot. These plants were inoculated with an aqueous spore suspension of Zymoseptoria tritici either prior to or after fungicide treatments. After inoculation the plants were kept in 100% relative humidity (one day in a dark dew chamber followed by two to three days in a lighted dew chamber at 20° C.) to permit spores to germinate and infect the leaf. The plants were then transferred to a greenhouse set at 20° C. for disease to develop. When disease symptoms were fully expressed on the 1st leaves of untreated plants, infection levels were assessed on a scale of 0 to 100 percent disease severity. Percent disease control was calculated using the ratio of disease severity on treated plants relative to untreated plants.

In another experiment the test system is Puccinia triticina. As to the kind of experiment: Wheat brown rust (PUCCRT) disease control on wheat seedlings. Type of experiment: in vivo. To be noted: High volume application, 100 ppm. The protocol: Technical grades of materials were dissolved in acetone, which were then mixed with nine volumes of water containing 110 ppm Triton X-100. The fungicide solutions were applied onto wheat seedlings using an automated booth sprayer to run-off. All sprayed plants were allowed to air dry prior to further handling. All fungicides were evaluated using the aforementioned method for their activity vs. all target diseases, unless stated otherwise. Wheat leaf blotch and brown rust activity were also evaluated using track spray applications, in which case the fungicides were formulated as EC formulations, containing 0.1% Trycol 5941 in the spray solutions. Example B: Evaluation of Fungicidal Activity: Wheat Brown Rust (Puccinia triticina; Synonym: Puccinia recondita f. sp. tritici; Bayer Code PUCCRT) Wheat plants (variety Yuma) were grown from seed in a greenhouse in 50% mineral soil/50% soil-less Metro mix until the first leaf was fully emerged, with 7-10 seedlings per pot. These plants were inoculated with an aqueous spore suspension of Puccinia triticina either prior to or after fungicide treatments. After inoculation the plants were kept in a dark dew room at 22° C. with 100% relative humidity overnight to permit spores to germinate and infect the leaf. The plants were then transferred to a greenhouse set at 24° C. for disease to develop. Fungicide formulation, application and disease assessment followed the procedures as described in the Example A.

The mark [1] stands for this setting: 24 h, 1 Day Protectant, read-out: SEPTTR disease control rating, 1DP.
Setting [2] is: 72 h, 3 Day Curative, read-out: SEPTTR disease control rating, 3DC.
[3] abbreviates: 24 h, 1 Day Protectant, read-out: PUCCRT disease control rating, 1DP.
Setting [4] is: 72 h, 3 Day Curative, read-out: PUCCRT disease control rating, 3DC.

Molecules are shown by their SMILES. Like-named read-outs stand apart in the source and are kept apart here.

Turning to `COc1ccc([C@H](C)[C@H](C)OC(=O)[C@@H](NC(=O)c2nccc(OC)c2O)C(C)C)c(C)c1` [Example 142], the pest or weed control at 100 ppm was over 80% in the experiment with Zymoseptoria tritici (setting [1]), under 80% with Zymoseptoria tritici (setting [2]), over 80% in the experiment with Puccinia triticina (setting [3]) and over 80% with Puccinia triticina (setting [4]).

Turning to `COc1ccnc(C(=O)NCC(=O)O[C@@H](C)[C@@H](C)c2ccc(F)cc2)c1O` [Example 121], the pest or weed control at 100 ppm was under 0% with Zymoseptoria tritici (setting [1]), under 80% with Zymoseptoria tritici (setting [2]), over 80% in the experiment with Puccinia triticina (setting [3]) and over 80% in the experiment on Puccinia triticina (setting [4]).

Consider `COc1ccnc(C(=O)N[C@@H](C)C(=O)O[C@H](C)[C@H](C)C2CCCC2)c1O` [Example 163], for which the pest or weed control at 100 ppm in the experiment on Zymoseptoria tritici (setting [1]), in the experiment on Zymoseptoria tritici (setting [2]), with Puccinia triticina (setting [3]) and in the experiment with Puccinia triticina (setting [4]) was under 80% in each case.

Regarding `COc1ccnc(C(=O)N[C@@H](C)C(=O)O[C@@H](C)[C@H](C)c2ccc(F)cc2C)c1O` [Example 129], the pest or weed control at 100 ppm with Zymoseptoria tritici (setting [1]) was under 80%; in the experiment on Zymoseptoria tritici (setting [2]) it was under 80%; with Puccinia triticina (setting [3]), over 80%; in the experiment on Puccinia triticina (setting [4]) it was under 80%.

As to `COc1ccnc(C(=O)N[C@H](C)C(=O)O[C@H](C)[C@H](C)c2ccc(F)cc2)c1O` [Example 156], the pest or weed control at 100 ppm in the experiment with Zymoseptoria tritici (setting [1]) was under 80%; in the experiment with Zymoseptoria tritici (setting [2]), under 80%; in the experiment on Puccinia triticina (setting [3]) it was under 0%; in the experiment with Puccinia triticina (setting [4]) it was under 80%.

`COc1ccnc(C(=O)N[C@@H](C)C(=O)O[C@H](C)[C@H](C)c2ccc(F)cc2C)c1O` [Example 133]: the pest or weed control at 100 ppm is under 80% with Zymoseptoria tritici (setting [1]), under 80% in the experiment on Zymoseptoria tritici (setting [2]), over 80% in the experiment with Puccinia triticina (setting [3]) and under 80% in the experiment on Puccinia triticina (setting [4]).

With `COc1ccnc(C(=O)N[C@@H](C)C(=O)O[C@H](C)[C@H](C)c2ccc(F)cc2)c1O` [Example 136], the pest or weed control at 100 ppm in the experiment with Zymoseptoria tritici (setting [1]) was under 80%; in the experiment on Zymoseptoria tritici (setting [2]), under 80%; with Puccinia triticina (setting [3]) it was over 80%; in the experiment with Puccinia triticina (setting [4]), under 80%.

`COc1ccc([C@@H](C)[C@@H](C)OC(=O)CNC(=O)c2nccc(OC)c2O)c(C)c1` [Example 127]: the pest or weed control at 100 ppm in the experiment with Zymoseptoria tritici (setting [1]) is under 0%; in the experiment on Zymoseptoria tritici (setting [2]), under 80%; with Puccinia triticina (setting [3]) it was under 80%; with Puccinia triticina (setting [4]), under 80%.

On to `COc1ccnc(C(=O)N[C@H](C(=O)O[C@H](C)[C@H](C)c2ccc(F)cc2C)C(C)C)c1O` [Example 143], for which the pest or weed control at 100 ppm in the experiment on Zymoseptoria tritici (setting [1]) is under 80%; with Zymoseptoria tritici (setting [2]), under 80%; in the experiment on Puccinia triticina (setting [3]), over 80%; with Puccinia triticina (setting [4]) it was under 0%.

On to `COc1ccnc(C(=O)NCC(=O)O[C@H](C)[C@@H](C)c2ccc(F)cc2C)c1O` [Example 124], for which the pest or weed control at 100 ppm with Zymoseptoria tritici (setting [1]) was under 0%; in the experiment with Zymoseptoria tritici (setting [2]) it was under 80%; with Puccinia triticina (setting [3]), under 80%; in the experiment with Puccinia triticina (setting [4]), under 0%.

In the case of `COc1ccnc(C(=O)N[C@H](C)C(=O)O[C@H](C)[C@@H](C)c2ccc(F)cc2C)c1O` [Example 154], the pest or weed control at 100 ppm in the experiment with Zymoseptoria tritici (setting [1]) is under 80%; with Zymoseptoria tritici (setting [2]) it was under 80%; in the experiment on Puccinia triticina (setting [3]), under 0%; in the experiment on Puccinia triticina (setting [4]), under 0%.

In the case of `COc1ccc([C@H](C)[C@H](C)OC(=O)CNC(=O)c2nccc(OC)c2O)c(C)c1` [Example 122], the pest or weed control at 100 ppm in the experiment on Zymoseptoria tritici (setting [1]) was under 80%; in the experiment with Zymoseptoria tritici (setting [2]) it was under 80%; in the experiment on Puccinia triticina (setting [3]) it was over 80%; in the experiment with Puccinia triticina (setting [4]), over 80%.

On to `COc1ccnc(C(=S)N[C@@H](C)C(=O)O[C@@H](C)[C@@H](C)C2CCCC2)c1O` [Example 269], for which the pest or weed control at 100 ppm was under 80% in the experiment on Zymoseptoria tritici (setting [1]), under 80% in the experiment on Zymoseptoria tritici (setting [2]), under 80% with Puccinia triticina (setting [3]) and over 80% in the experiment with Puccinia triticina (setting [4]).
